Point of comparison: COC(=O)Nc1nc2cc(C(c3cccc(Cl)c3)n3ccnc3)ccc2[nH]1 (configuration not stated), melting point 168 °C. Against it:
- CCCCOc1ccc(S(=O)(=O)N2CCC(OS(C)(=O)=O)C2)cc1 (configuration not stated) — lower, 80 to 81 °C
- CN(C)C=Nc1sc(C#N)c(Cl)c1C#N — higher, 226 °C
- COc1ccc2nccc(NC(=O)N3CCN(CC(O)c4cnc5ccccc5n4)CC3)c2n1 (configuration not stated) — lower, 133 to 135 °C
- N=C(N)c1ccc2cc(OC(=O)C3CC3)ccc2c1 — higher, 214 to 217 °C
- COCCNC(=O)COc1ccc(C(=O)CN2CCN(c3ccncc3)CC2)cc1 — lower, 142 to 145 °C
- O=C(C=Cc1ccc(CNC2CC2)cc1)Nc1ccc(-c2ccc(Cl)cc2)cc1 — higher, 222 to 223 °C
- COc1ccc(-n2cc(C)cc2-c2ccc(S(N)(=O)=O)cc2)cc1 — lower, 63 to 64 °C
- NC(=O)Cc1ccc(-c2csc(N=C(N)N)n2)o1 — higher, 219 to 220 °C
- CC(=O)OCc1c(Br)cccc1Br — lower, 62 to 65 °C
- O=[N+]([O-])c1ccc(-c2noc(-c3ccccn3)n2)cc1 — higher, 202 to 203 °C
- CC(C)(C)OC(=O)c1ccc(C(=O)O)cc1 — lower, 100 to 102 °C
- Cc1cccc(-c2nc(-c3ccc(S(C)=O)cc3)sc2-c2ccnc(C)c2)c1 (configuration not stated) — lower, 128 to 130 °C
- Nc1c(C(=O)c2ccccc2O)oc2ccc(Cl)cc12 — higher, 208 to 210 °C
- Nc1ccc(C(c2ccc(N)cc2)(c2ccc(I)cc2)C(F)(F)F)cc1 — higher, 171 to 172 °C
- N#Cc1cnc2sc(-c3ccccc3)cc2c1-c1ccc2[nH]ccc2c1 — higher, > 245 °C
- CC(C)c1nc2c(OCc3ccccc3)cc(Br)cc2n1C — lower, 132 to 133 °C
- OCC1CCn2c(nc3ccccc32)S1 (configuration not stated) — lower, 112 to 113 °C
- CN(C)Cc1ccc2cc(NC(=O)c3ccc(-c4ccc(Cl)cc4)cc3)ccc2c1 — higher, 230 to 231 °C
- CC(=O)OCC1CC(OC(C)=O)C(n2cc(C(Cl)=CI)c(=O)[nH]c2=O)O1 (configuration not stated) — lower, 87 to 89 °C
- CC1(CC(CO)CO)SCCS1 — lower, 72 to 73 °C
- CCCCCCCCCCCCCCC(=O)C(=O)NCCCC(=O)OC(C)(C)C — lower, 61 to 62 °C
- Cc1cccc2cc(C(=O)N(C)C)c(C=CNc3ccc(F)cc3)nc12 — higher, 172 to 173 °C
- CC(C)CC1=NC=C2C=CC(=O)NC3=C2N1CC3 — higher, 211 to 212 °C
- COCCOc1cc2ncnc(NC3=CC(=O)C(NCc4cccc(C)c4)=CC3=O)c2cc1OC — higher, 241 to 242 °C
- CC1(C)COC(c2ccccc2)(c2ccc(N)c([N+](=O)[O-])c2)OC1 — lower, 140 °C
- Cc1ccc2c(=O)c(C(=O)O)cn(CCOC=O)c2n1 — higher, 213 to 214 °C
- CN(C)C1CCN(c2nc(N3CCOCC3)c3ncnc(NCc4ccccc4)c3n2)CC1 — lower, 148 to 150 °C
- O=C1c2ccccc2-c2c1c(Cl)nc1ccc(Br)cc21 — higher, 304 to 306 °C
- COC(=O)COc1cc(C(=O)N2CCOCC2)ccc1[N+](=O)[O-] — lower, 140 to 142 °C
- ON=C1CCCOc2ccccc21 — lower, 96 to 98 °C
- O=C1CCC2C3Cc4ccc(O)c5c4C2(CC[N+]3([O-])CC2CC2)C1O5 (configuration not stated) — higher, 209 to 211 °C
- COc1cc(COc2cc(CC#N)n(-c3ccccc3)n2)ccc1OCc1nc(-c2ccco2)oc1C — lower, 141 to 142 °C
- CCCCCCCCOC(=O)C1=CC(=O)C(C(=O)OCCCCCCCC)=C(S(=O)(=O)c2ccc(C)cc2)C1=O — lower, 75 to 77 °C
- CC(C)OC(=O)c1ccc2c(c1)C(=O)CC(c1ccccc1)=N2 — higher, > 300 °C
- CCOC(=O)C(=NO)c1ccc(OC)cc1 — lower, 81 to 82 °C
- CCOC(=O)c1nn(-c2c(Cl)cc(C(F)(F)F)cc2Cl)cc1O — lower, 140 to 143 °C
- CCN1c2ncccc2C(=O)N(C)c2ccc(-c3c[nH]c(C#N)c3)nc21 — higher, 268 to 269 °C
- CNC(=O)Nc1cccc2c1C(=O)c1c-2n[nH]c1-c1ccc(OC)cc1 — higher, > 300 °C
- CC(C(=O)O)c1ccc2c(c1)Cc1cc(F)ccc1S2 (configuration not stated) — lower, 140 to 145 °C
- Cc1noc(NS(=O)(=O)c2cccc(-c3ccccc3)c2)c1Cl — lower, 84 to 86 °C
- COc1nc(C)nc(NC(=O)NS(=O)(=O)c2cccc3c2C(Cl)=CC3)n1 — not separable, 168 to 170 °C
- CCCCCCCCOC(=O)C=CC(=O)OC(=C1C(=O)N(C(N)=O)c2cc(Cl)c(F)cc21)c1cccs1 — lower, 140 to 148 °C
- Cc1noc(-c2ncn3c2cnc2ccccc23)n1 — higher, 269 to 270 °C
- CCCCCN(C(=O)Nc1ccc(C(=O)O)cn1)c1ccc2c(c1)C(C)(C)CCC2(C)C — higher, 175 to 180 °C
- CCCCCCCCc1ccc(CCC(NC(C)=O)(C(=O)OCC)C(=O)OCC)s1 — lower, 57 to 58 °C
- CC(=O)c1ccc(C2(O)CC(C)(C)CC(C)(C)C2)cc1 — lower, 135 °C
- CN(C)C(=O)C1=C(C(=O)Nc2ccc(Br)cc2F)CCCC1 — lower, 83 to 85 °C
- COC(=O)CCc1ccc(-n2ncn(-c3ccc(C(=N)NC(=O)OC)cc3)c2=O)cc1 — higher, 296 to 298 °C
- CCCc1ccc(OCCN(C(=O)n2cccn2)c2ncnc3ccccc23)c(C)c1 — lower, 114 to 115 °C
- O=C(O)c1nc(C2CC2)[nH]c(=O)c1Cl — higher, 189 to 190 °C
- Cc1nc2ccccc2c(=O)n1CCN1CCC(Nc2nc3ccccc3n2Cc2ccc(F)cc2)CC1 — higher, 186 °C
- Cc1n[nH]c(C)c1[C@H](C)NC(=O)COc1cc(C(F)(F)F)c2c(-c3ccccc3)nn(C)c2n1 — lower, 145 to 147 °C
- NC(=O)Oc1cccc2ccccc12 — lower, 118 °C
- CC1CC1n1cc(C(=O)O)c(=O)c2cc(F)c(N3CCC(N)C3)c(F)c21 (configuration not stated) — higher, 267 to 275 °C
- COC(=O)C(C)(C)Nc1ccc(OCc2ccccc2)cc1 — lower, < 50 °C
- CN1OCC(=Cc2cc(C(C)(C)C)c(O)c(C(C)(C)C)c2)C1=O — higher, 194 to 196 °C
- COc1ccc(CCCc2ccc(O)cc2O)c(OC)c1C — lower, 108 °C
- Cc1nc(O)cc(C(C)(C)C)n1 — lower, 131 to 132 °C
- CCC1CC(=O)NN=C1c1ccc2nc(-c3ccncc3)[nH]c2c1 (configuration not stated) — higher, 299 to 302 °C
- C=CCc1c(O)ccc2ccc(=O)[nH]c12 — higher, 207 to 209 °C
- CSC(=Cc1ccc(N)cc1)S(C)=O (configuration not stated) — lower, 165 to 166 °C
- CCCCCCCCC1N=C(N)NC(Nc2cc(C(C)(C)C)ccc2OC)=N1 (configuration not stated) — lower, 129 to 132 °C
- CC(C)(C)CC(C)(C)c1cc(Cc2cc(C(C)(C)C)cc(-n3nc4ccccc4n3)c2O)c(O)c(C(C)(C)CC(C)(C)C)c1 — lower, 166 °C
- N#Cc1c(-c2cccc(N)c2)cc(-c2ccccc2O)nc1NC(=O)c1ccc(Cl)s1 — higher, 259 to 260 °C
- Cc1nc(-n2cc(-c3ccc(OCc4ccccc4)cc3)nn2)sc1C(=O)NCc1ccccc1 — higher, 237 to 240 °C
- O=S(=O)(CCN1CCC2(CC1)OCc1ccccc12)CCN1CCC2(CC1)OCc1ccccc12 — higher, 170 to 172 °C
- CCCCCCc1ccc(/C(Cl)=C/c2ccc(Br)cc2)cc1 — lower, 52 °C
- Cn1cnc(=O)c(-c2cccc(Br)c2)c1 — lower, 120 to 121 °C
- CCOc1nc(F)cc2nc(SSc3nc4cc(F)nc(OCC)n4n3)nn12 — higher, 215 to 216 °C
- COC(=O)C(OC)c1nsc2ccc(-n3c(=O)cc(C(F)(F)F)n(C)c3=O)cc12 (configuration not stated) — not separable, 166 to 168 °C
- COc1ccc(Nc2nc(Cl)nc3c(OC)cccc23)c(C)c1 — higher, 230 to 232 °C
- Oc1c(-c2nnn[nH]2)cnc2c(Br)cccc12 — higher, > 260 °C
- CCCOc1cccc(C2(c3ccncc3)N=C(N)N(C)C2=O)c1 (configuration not stated) — higher, 173 to 175 °C
- CCSN(C)C(=O)Nc1ccc(OC)c(Cl)c1 — lower, 60 °C
- CN(C)c1ccc(-c2cccc3c2C2(COc4cc5c(cc42)OCO5)C(=O)N3)cn1 (configuration not stated) — higher, > 245 °C
- COC(=O)C1CC(O)C(=O)N1 (configuration not stated) — lower, 85 to 86 °C
- CC1(c2ccc(Cl)cc2)Cc2cc(O)c(Cl)c(Cl)c2C1=O (configuration not stated) — higher, 211 to 213 °C
- O=C(O)C(O)c1ccc2oc([N+](=O)[O-])c(-c3ccccc3)c2c1 (configuration not stated) — lower, 158 to 161 °C
- Cc1cc2c(Oc3ccccc3Cl)cccc2[nH]1 — lower, 138 to 140 °C
- CCOC(=O)c1cn(CC)c2nc(N3CCNCC3)c(F)cc2c1=O — lower, 150 to 151 °C
- CC(NC(=O)Cc1cc(F)cc(F)c1)C(=O)NC1C(=O)N(Cc2ccccc2)Cc2ccccc21 (configuration not stated) — lower, 144 to 145 °C
- C/C(=C(\C#N)C(N)=S)N1CCCN(c2cccc(C)c2)CC1 — lower, 144 to 148 °C
- N[C@@H](CCC(=O)NCCS(=O)(=O)O)C(=O)O — higher, 202 to 204 °C
- OCc1cccc2cccnc12 — lower, 74 to 75 °C
- CC(C)N(Cc1nc(-c2ncn3c2CN(C)C(=O)c2c-3ccc(F)c2Cl)no1)C(C)C — lower, 153 to 156 °C
- CCOc1nc(C)ccc1C#N — lower, 90 to 92 °C
- O=C(Nc1noc2ccccc12)N1CCN(c2nc(-c3ccccn3)ns2)CC1 — higher, 222 to 223 °C
- Cc1c(CO)oc2ccc(Cl)cc12 — lower, 112 to 113 °C
- CCOC(=O)c1ccc(Nc2nnc(-c3ccc(Oc4ccccc4)cc3)s2)cc1 — higher, 206 to 207 °C
- CCOC(=O)c1cc(-c2ccc3ccccc3c2)[nH]c1N — lower, 149 to 151 °C
- CS(=O)(=O)c1nc2ncc(Cl)cc2s1 — higher, 201 to 202 °C
- CC(C)OC(=O)N1CCC(c2ccc3oc(-c4ccc(S(C)(=O)=O)cc4F)nc3c2)CC1 — lower, 151 to 156 °C
- CC[C@H](C)C(OCc1ccccc1)[C@H]1[C@H]([N+](=O)[O-])[C@@H](c2cccs2)N[C@@H]1C(=O)NCCC(=O)O (some centres not stated) — lower, 79 to 80 °C
- CCCCCCC(Nc1ccccc1)=C1C(=O)ON=C1C — lower, 83 to 84 °C
- COc1cc(Nc2c(C#N)cnc3cc(-c4ccc(CO)cc4)ccc23)c(Cl)cc1Cl — higher, 264 to 267 °C
- CC(=O)OC1CC(C)(C)N(OC(=O)C=Cc2ccccc2)C(C)(C)C1 — lower, 130 to 132 °C
- O=C(CNC(=O)c1ccc(N2CCN(C(=O)c3ccccc3C(F)(F)F)CC2)nn1)c1ccccc1 — higher, 196 to 198 °C
- COC(=O)c1ccc2nc3cc(C)sc3c(=O)n2c1 — higher, 215 to 216 °C
- CCNc1c(OC)cc(C(=O)OC)cc1OC — lower, 50 to 51 °C
- CCOC(=O)c1ccc2c(c1)S(=O)c1cc([N+](=O)[O-])ccc1-2 (configuration not stated) — higher, 245 to 250 °C
- CCOc1nc2ccccc2nc1NC(=O)N1CCN(c2cc(OC)cc(OC)c2)CC1 — lower, 149 to 150 °C

— a melting point compilation (Tetko et al.; mined from patent text by program, amines drawn as free bases though some values may be those of a salt)
